# Patent US20040175691A1, “Use of the KCNQ2 and KCNQ3 genes for the discovery of agents useful in the treatment of neurological disorders” (priority 1998, published 2004)
# Experiments:
# hKCNQ2 potassium channel = target: T1, hKCNQ2 potassium channel (Homo sapiens, UniProt O43526, DEL417-446); test: Membrane potential-evoked fluorescence (FLIPR, DiBAC) in HEK 293E cells stably expressing hKCNQ2; type: cell-based; settings: DiBAC-loaded HEK 293E hKCNQ2 cells, FIG. 6
# T1 construct: Full-length hKCNQ2 cDNAs were amplified from adult human brain cDNA; expressed in transfected cells; host or cells: 293 EBNA (HEK 293E) cells, episomal plasmid pm3AR-hKCNQ2-1, hygromycin B selection
# Experimental: The ability of KCNQ2 modulators to alter membrane potential was assessed using a fluorescence imaging plate reader (FLIPR). Cultured HEK 293E cells expressing hKCNQ2 channels are plated on poly-D-lysine-coated 96-well Costar microplates (#3603) at 300,000-750,000 cells/ml and allowed to reach confluence in DMEM (with 10% FBS and 250 ug/ml hygromycin B) at 37° C. and 5% CO2. After reaching confluence, growth medium is removed, replaced with a standard Hank's balanced salt solution containing 5 uM dibac(4)3, bis-oxonol (Molecular Probes # B-438) at 37° C. The cell plate is then placed in the recording chamber (equilibrated to 37° C.) of a fluorescence imaging plate reader (FLIPR; Molecular Devices) along with two drug plates (one containing standard Hank's balanced salt solution+dibac and the other containing standard Hank's balanced salt solution+dibac+test compound at various experimental concentrations).
# These cells were loaded with the voltage-sensitive fluorescent dye, DiBAC, that distributes across cell membranes in a voltage-dependent manner. As cells depolarize (become more positive inside), more dye enters the cells and an increase in fluorescence occurs.
# In FIG. 7, the relative effects of several M-current modulators on the flourescence of HEK 293E cells stably expressing the hKCNQ2 potassium channel is shown. These cells were loaded with the voltage-sensitive fluorescent dye, DiBAC, that distributes across cell membranes in a voltage-dependent manner. As cells depolarize, more dye enters the cells and an increase in fluorescence occurs. Conversely, as cells hyperpolarize (become more negative inside), more dye leaves the cells and a decrease in fluorescence occurs.
# M-current = target: T2, M-current (Rattus norvegicus, UniProt O88943+O88944); test: Blockade of native M-current in SCG neurons (voltage clamp, intact ganglia); type: cell-based; settings: native M-current, SCG neurons; mean±s.e.m.
# T2 construct: from tissue
# Experimental: (§1) Method: Recordings of the M-current in sympathetic neurons in intact ganglia were performed at room temperature as described previously (Wang and McKinnon, 1995). The standard extracellular recording solution was: NaCl (133 mM, KCl (4.7 mM), NaH2PO4 (1.3 mM), NaHCO3 (16.3 mM), CaCl2 (2 mM), MgCl2 (1.2 mM) and glucose (1.4 g/liter), bubbled with 95% O2-5% CO2 to give pH 7.2-7.4.
# A. Blockade of M-current in SCG neurons by XE991. Holding potential was −30 mV and step potential was −50 mV for 1 second. The shift in holding current following drug application is due to the inhibition of M-current activated at the holding potential.
# Maximal block of native M-current was 93±2%. Data points are averages and error bars represent s.e.m.
# [1] = test system: phasic sympathetic neurons; test: Firing properties of phasic sympathetic neurons from the SCG; type: cell-based, rat; settings: 10 μM
# Experimental: as §1
smiles,measurement,setting,value
"O=C1N(c2ccccc2)c2ccccc2C1(Cc1ccncc1)Cc1ccncc1 [Linopirdine, 3,3-bis(4-pyridinylmethyl)-1-phenylindolin-2-one]",Change in fluorescence (membrane depolarization),hKCNQ2 potassium channel,time- and concentration-dependent increase in flourescence
"O=C1c2ccccc2C(Cc2ccncc2)(Cc2ccncc2)c2ccccc21 [XE991, 10,10-bis(4-pyridinylmethyl)-9(10H)-anthracenone]",IC50,M-current,980 ± 150 nM
same,Effect on firing properties of phasic neurons,[1],converts the firing properties from phasic to tonic
